Reference: paper PMC13195669, “GPR3 Ligands Discovered through Combined Virtual and Conformational Biosensor-Based Screening” (Journal of the American Chemical Society, 2026)

Molecular target: T1, GPR6 (Homo sapiens, UniProt P46095)
T1 construct: expressed in transfected cells; host or cells: HEK293A, transient
Experiment: cAMP GloSensor 22F, GPR6-transfected HEK293A cells
Assay type: cell-based
Text: Next, we used the classical cAMP GloSensor technology to assess the target selectivity profile of 33. […] In addition, we tested the effects of 33 on cAMP changes mediated by agonist-stimulated GPCRs phylogenetically close to GPR3 and coupling to Gs or Gi/o proteins. […]
conditioning and no constraints were applied. The poses were visually inspected and the most favorable one that coincides with the co-solved ligand according to the available structures was chosen.
Plasmids and molecular cloning
The H187-EPAC-FRET sensor7 was kindly provided by K. Jalink (The Netherlands Cancer Institute, Amsterdam, The Nether-lands). The BRET-based cAMP sensor CAMYEL8 was kindly provided by Laura Humphrys (University of Regensburg, Regens-burg, Germany). Plasmids encoding the conformational biosensors α2AAR- and β2AR-HaloTag/Nluc9 and the Gs heterotrimer dissociation sensor10 were previously described. The expression plasmid encoding N-terminally HA-tagged GPR3 (cat. no.
#GPR003TN00) on a pcDNA3.1+ vector was obtained from the cDNA resource center (cdna.org). The Nluc and HaloTag in-serts were amplified with overhanging restriction sites from β2AAR- HaloTag/Nluc and ligated to the full-length C-terminus or inserted into icl3 of GPR3, respectively, to obtain the conformational biosensor GPR3-HaloTag/Nluc. […]

T1 sequence (P46095 whole entry, species assumed): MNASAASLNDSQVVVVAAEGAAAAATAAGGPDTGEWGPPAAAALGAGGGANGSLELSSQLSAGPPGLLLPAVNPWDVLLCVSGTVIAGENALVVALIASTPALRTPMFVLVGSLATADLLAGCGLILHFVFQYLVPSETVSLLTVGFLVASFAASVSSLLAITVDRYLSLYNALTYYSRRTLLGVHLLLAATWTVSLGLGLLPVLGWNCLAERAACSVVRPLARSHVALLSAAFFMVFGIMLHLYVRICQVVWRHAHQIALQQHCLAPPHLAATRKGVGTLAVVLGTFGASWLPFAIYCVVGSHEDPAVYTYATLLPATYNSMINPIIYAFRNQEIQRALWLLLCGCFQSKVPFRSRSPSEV

N=c1n(Cc2ccccc2)c2ccccc2n1CC1CC1 [compound 33]
receptor-specific change in cAMP, GPR6: no receptor-specific changes in cAMP levels below 100 μM
